Four compounds from patent EP4603477A1, “INHIBITORS OF THE CORONAVIRUS ACCESSORY PROTEIN ORF9B” (Consejo Superior De Investigaciones Científicas, priority 2024, dated 2025) can be followed below.

SMILES strings stand for the structures.

The test system of this test is THP-1 cells stably integrating and constitutively expressing ORF9b. Put plainly: Cytokine quantification (Procartaplex multiplex) in THP-1 cells expressing ORF9b. Format: cell-based. The conditions noted are these: 1 µM or 5 µM. On the procedure: THP-1 cells stably integrating and constitutively expressing ORF9b were generated as described under "Biochemical and biological activity (2)". Cytokines (IL-1β, IL-18, IL-10, TNF-α) were quantified by means of Procartaplex multiplex assays (InVitrogen, ThermoFisher), following instructions by the supplier. Briefly, capture beads were incubated for 2 h with cleared cell supernatants, washed and incubated with biotinylated detection antibody mix, incubated for 30 min, washed and incubated with Streptavidin-PE for 30 min, washed and data acquired on a Luminex 200 instrument. To ascertain the effect of ORF9b homodimerization inhibitors on ORF9b-mediated cytokine secretion, THP1-1 cells with the above modifications were treated with 1 µM or 5 µM of each of the compounds (final concentrations in cell culture media), and cytokine levels determined in cell culture supernatants. All determinations were performed in triplicate, and analyzed statistically significance in differences by means of a two-tailed Student's t-test. Inhibition of ORF9b-mediated secretion of cytokines was considered significant with p values ≤ 0.05.
As to `Nc1ccc(F)c(NC(=O)Cc2ccccc2)c1` [Compound 1], the “ORF9b-induced release of IL-1β” value is reported as “inhibited”, the “ORF9b-induced release of IL-10” value is on record as “inhibited” and the “ORF9b-induced release of IL-18” value was “inhibited”.

As to `Nc1ccc(F)c(NC(=O)c2cccc3ccccc23)c1` [Compound 2, N-(5-Amino-2-fluorophenyl)-1-naphthamide], the “ORF9b-induced release of IL-1β” value is on record as “inhibited”, the “ORF9b-induced release of IL-10” value was “inhibited” and the “ORF9b-induced release of IL-18” value is “inhibited”.

For `O=C(Cc1ccc(Cl)cc1)Nc1cc([N+](=O)[O-])ccc1F` [Compound 6, 2-(4-Chlorophenyl)-N-(2-fluoro-5-nitrophenyl)acetamide], the “ORF9b-induced release of IL-1β” value is on record as “inhibited”, the “ORF9b-induced release of IL-10” value is “inhibited” and the “ORF9b-induced release of IL-18” value was “inhibited”.

For `CC(C)(O)c1coc(S(=O)(=O)NC(=O)Nc2c3c(cc4c2CCC4)CCC3)c1` [MCC950, reference compound], the “ORF9b-induced release of IL-1β” value was “abrogated”, the “ORF9b-induced release of IL-10” value is reported as “abrogated”, the “ORF9b-induced release of IL-18” value is recorded as “abrogated” and the “ORF9b-induced release of TNF-α” value is recorded as “abrogated”.
